# Results: patent US20100292214A1, “Compounds with Antiparasitic Activity, Applications thereof to the Treatment of Infectious Diseases Caused by Apicomplexans” (commissariat a l'Energie Atomique, priority 2007, published 2010)
# Where a name gives a salt, the structure may show the parent alone. Read-outs that look alike come from different tables or passages of the source.
# Key:
# [1] = test system: asynchronous 3D7 chloroquine-sensitive P. falciparum infected red blood cells; experiment: Labeled hypoxanthine incorporation assay (in vitro anti-malarial activity); type: cell-based; settings: Plasmodium falciparum, 3D7, Erythrocyte, read-out: IC50 assessed on Plasmodium Falciparum
# [2] = test system: Toxoplasma gondii RH-β1 strain; experiment: microbe, parasite or virus in culture; type: cell-based; settings: Toxoplasma gondii, read-out: IC50 assessed on Toxoplama Gondii
# [3] = 3D7 chloroquine-sensitive strain, infected RBC, 48 h contact, [3H]-hypoxanthine incorporation, two independent experiments in duplicates
Compound,"IC50 [1, 3] [µM]",IC50 [2] [µM],IC50 [1] [µM]
"CCOC(=O)CCCn1c(=O)n(C2CCN(C(=O)OC[C@H](C)N(Cc3ccccc3)Cc3ccccc3)CC2)c2ccccc21 [Compound 77, (S)-2-(dibenzylamino)propyl 4-(3-(4-ethoxy-4-oxobutyl)-2-oxo-2,3-dihydro-1H-benzo[d]imidazol-1-yl)piperidine-1-carboxylate]",0.6,5.7,–
"C[C@@H](COC(=O)N1CCC(n2c(=O)n(CCCC(=O)O)c3ccccc32)CC1)N(Cc1ccccc1)Cc1ccccc1 [Compound 78, (S)-4-(3-(1-((2-(dibenzylamino)propoxy)carbonyl)piperidin-4-yl)-2-oxo-2,3-dihydro-1H-benzo[d]imidazol-1-yl)butanoic acid]",6.29,1.7,–
"C[C@@H](COC(=O)N1CCC(n2c(=O)n3c4c(cccc42)C(=O)CCC3)CC1)N(Cc1ccccc1)Cc1ccccc1 [Compound 79, (S)(1-((2-(dibenzylamino)propoxy)carbonyl)piperidin-4-yl)-5,6-dihydro-imidazo[4,5,1,j,k][1]benzazepine-2,7(1H,4H)-dione]",3.12,11.5,–
"C[C@@H](COC(=O)N1CCC(Nc2ccccc2)CC1)N(Cc1ccccc1)Cc1ccccc1 [Compound 80, (S)-2-(dibenzylamino)propyl 4-(phenylamino)piperidine-1-carboxylate]",–,9.5,3.41
"COc1ccc(NC2CCN(C(=O)OC[C@H](C)N(Cc3ccccc3)Cc3ccccc3)CC2)cc1 [Compound 81, (S)-2-(dibenzylamino)propyl 4-(4-methoxyphenylamino)piperidine-1-carboxylate]",8.42,10,–
"COc1ccc(NC2CCN(C(=O)OC[C@H](C)N(Cc3ccccc3)Cc3ccccc3)CC2)c(OC)c1 [Compound 82, (S)-2-(dibenzylamino)propyl 4-(2,4-dimethoxyphenylamino)piperidine-1-carboxylate]",2.38,7.3,–
"COc1cc(NC2CCN(C(=O)OC[C@H](C)N(Cc3ccccc3)Cc3ccccc3)CC2)cc(OC)c1OC [Compound 83, (S)-2-(dibenzylamino)propyl 4-(3,4,5-trimethoxyphenylamino)piperidine-1-carboxylate]",3.09,16,–
"C[C@@H](COC(=O)N1CCC(Nc2cccc(F)c2)CC1)N(Cc1ccccc1)Cc1ccccc1 [Compound 84, (S)-2-(dibenzylamino)propyl 4-(3-fluorophenylamino)piperidine-1-carboxylate]",–,5.5,6.74
"C[C@@H](COC(=O)N1CCC(Nc2ccc(I)cc2)CC1)N(Cc1ccccc1)Cc1ccccc1 [Compound 85, (S)-2-(dibenzylamino)propyl 4-(4-iodophenylamino)piperidine-1-carboxylate]",–,7.65,8.09
"C[C@@H](COC(=O)N1CCC(Nc2ccc(Cl)c(Cl)c2)CC1)N(Cc1ccccc1)Cc1ccccc1 [Compound 86, (S)-2-(dibenzylamino)propyl 4-(3,4-dichlorophenylamino)piperidine-1-carboxylate]",–,3.75,7.25
"C[C@@H](COC(=O)N1CCC(Nc2ccccc2N)CC1)N(Cc1ccccc1)Cc1ccccc1 [Compound 87, (S)-2-(dibenzylamino)propyl 4-(2-aminophenylamino)piperidine-1-carboxylate]",10.3,12.9,–
"C[C@@H](COC(=O)N1CCC(N(c2ccccc2)S(=O)(=O)c2ccccc2)CC1)N(Cc1ccccc1)Cc1ccccc1 [Compound 90, (S)-2-(dibenzylamino)propyl 4-(N-phenylphenylsulfonamido)piperidine-1-carboxylate]",0.525,1.75,–
"C[C@@H](CNC(=S)N1CCC(n2c(=O)[nH]c3ccccc32)CC1)N(Cc1ccccc1)Cc1ccccc1 [Compound 91, N-((S)-2-(dibenzylamino)propyl)-4-(1,2-dihydro-2-oxobenzo[d]imidazol-3-yl)piperidine-1-carbothioamide]",2.71,7.5,–
"C[C@@H](CNC(=O)N1CCC(n2c(=O)[nH]c3ccccc32)CC1)N(Cc1ccccc1)Cc1ccccc1 [Compound 92, N—((S)-2-(dibenzylamino)propyl)-4-(1,2-dihydro-2-oxobenzo[d]imidazol-3-yl)piperidine-1-carboxamide]",3.47,15,–
"C[C@@H](COC(=O)N1CCC(Nc2nc3ccccc3[nH]2)CC1)N(Cc1ccccc1)Cc1ccccc1 [Compound 93, (S)-2-(Dibenzylamino)propyl 4-(1H-benzo[d]imidazol-2-ylamino)piperidine-1-carboxylate]",0.18,0.98,–
"C[C@@H](COC(=O)N1CCC(Nc2nc3ccccc3n2C(=O)OC[C@H](C)N(Cc2ccccc2)Cc2ccccc2)CC1)N(Cc1ccccc1)Cc1ccccc1 [Compound 94, (S)-2-(dibenzylamino)propyl 2-(1-(((S)-2-(dibenzylamino)propoxy)carbonyl)piperidin-4-ylamino)-1H-benzo[d]imidazole-1-carboxylate]",2.62,9,–
"C[C@@H](CNC(=N)N1CCC(n2c(=O)[nH]c3ccccc32)CC1)N(Cc1ccccc1)Cc1ccccc1 [Compound 95, N—((S)-2-(dibenzylamino)propyl)-4-(1,2-dihydro-2-oxobenzo[d]imidazol-3-yl)piperidine-1-carboxamidine]",0.511,11,–
"O=C(CCCN(Cc1ccccc1)Cc1ccccc1)N1CCC(n2c(=O)[nH]c3ccccc32)CC1 [Compound 96, 1-[1-(4-Dibenzylamino-butyryl)-piperidin-4-yl]-1,3-dihydrobenzoimidazol-2-one]",11.3,6.3,–
"C[C@@H](COC(=O)N1CCC(n2c(=S)[nH]c3ccccc32)CC1)N(Cc1ccccc1)Cc1ccccc1 [Compound 97, (S)-2-(dibenzylamino)propyl 4-(1,2-dihydro-2-thioxobenzo[d]imidazol-3-yl)piperidine-1-carboxylate]",1.06,3.5,–
"O=C(OCCN(Cc1ccccc1)Cc1ccc([N+](=O)[O-])cc1)N1CCC(n2c(=O)[nH]c3ccccc32)CC1 [Compound 98, 2-(N-(4-nitrobenzyl)-N-benzylamino)ethyl 4-(1,2-dihydro-2-oxobenzo[d]imidazol-3-yl)piperidine-1-carboxylate]",3.04,3.33,–
"O=C(OCCN(Cc1ccccc1)Cc1ccccc1OCc1ccccc1)N1CCC(n2c(=O)[nH]c3ccccc32)CC1 [Compound 99, 2-(benzyl(2-(benzyloxy)benzyl)amino)ethyl 4-(2-oxo-2,3-dihydro-1H-benzo[d]imidazol-1-yl)piperidine-1-carboxylate]",0.842,3.5,–
"CC(C)C[C@@H](COC(=O)N1CCC(n2c(=O)[nH]c3ccccc32)CC1)N(Cc1ccccc1)C(=O)OC(C)(C)C [Compound 105, (S)-2-(benzyl(tert-butoxycarbonyl)amino)-4-methylpentyl 4-(2-oxo-2,3-dihydro-1H-benzo[d]imidazol-1-yl)piperidine-1-carboxylate]",1.42,2.2,–
"CC(C)C[C@@H](COC(=O)N1CCC(n2c(=O)[nH]c3ccccc32)CC1)N(Cc1ccccc1)Cc1ccccc1 [Compound 108, (S)-2-(dibenzylamino)-4-methylpentyl 4-(1,2-dihydro-2-oxobenzo[d]imidazol-3-yl)piperidine-1-carboxylate]",2.61,3.75,–
"CC(CCOC(=O)N1CCC(n2c(=O)[nH]c3ccccc32)CC1)N(Cc1ccccc1)Cc1ccccc1 (stereo not drawn) [Compound 110, 3-(dibenzylamino)butyl 4-(1,2-dihydro-2-oxobenzo[d]imidazol-3-yl)piperidine-1-carboxylate]",1.48,3.6,–
"O=C(OC[C@H](c1ccccc1)N(Cc1ccccc1)Cc1ccccc1)N1CCC(n2c(=O)[nH]c3ccccc32)CC1 [Compound 112, (S)-2-(dibenzylamino)-2-phenylethyl 4-(1,2-dihydro-2-oxobenzo[d]imidazol-3-yl)piperidine-1-carboxylate]",0.5,3.75,–
"O=C(OCCCN(Cc1ccccc1)Cc1ccc([N+](=O)[O-])cc1)N1CCC(n2c(=O)[nH]c3ccccc32)CC1 [Compound 114, 3-(benzyl(4-nitrobenzyl)amino)propyl 4-(2-oxo-2,3-dihydro-1H-benzo[d]imidazol-1-yl)piperidine-1-carboxylate hydrochloride]",3.17,3.3,–
"O=C(OCCN(Cc1ccccc1)Cc1ccc(Br)cc1)N1CCC(n2c(=O)[nH]c3ccccc32)CC1 [Compound 115, 2-(benzyl(4-bromobenzyl)amino)ethyl 4-(2-oxo-2,3-dihydro-1H-benzo[d]imidazol-1-yl)piperidine-1-carboxylate hydrochloride]",4.41,3.2,–
"O=C(OC[C@@H](Cc1ccccc1)N(Cc1ccccc1)Cc1ccccc1)N1CCC(n2c(=O)[nH]c3ccccc32)CC1 [Compound 118, (R)-2-(dibenzylamino)-3-phenylpropyl 4-(1,2-dihydro-2-oxobenzo[d]imidazol-3-yl)piperidine-1-carboxylate]",1.49,2.9,–
"O=C(OCCN(Cc1ccccc1)Cc1ccc(F)cc1)N1CCC(n2c(=O)[nH]c3ccccc32)CC1 [Compound 119, 2-(benzyl(4-fluorobenzyl)amino)ethyl 4-(2-oxo-2,3-dihydro-1H-benzo[d]imidazol-1-yl)piperidine-1-carboxylate hydrochloride]",3.57,1.4,–
"O=C(OCCN(CCCc1ccccc1)Cc1ccccc1)N1CCC(n2c(=O)[nH]c3ccccc32)CC1 [Compound 120, 2-(benzyl(3-phenylpropyl)amino)ethyl 4-(2-oxo-2,3-dihydro-1H-benzo[d]imidazol-1-yl)piperidine-1-carboxylate hydrochloride]",3.61,1.7,–
